Legend:
Type in all cases: in vivo
kochia (Kochia scoparia) [1] = assay: Test A postemergence, kochia; conditions: visual injury, 0 to 100 scale (0 no effect, 100 complete control), approximately 10 days
Method in brief: (§1)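 Injury scores (0 no effect, 100 complete control) were assigned by visually comparing treated with untreated plants after about 10 days of greenhouse growth. Seeds for soil treatment were sown into a loam and sand blend, while plants for foliar treatment grew in pots of that same blend.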

kochia (Kochia scoparia) [2] = assay: Test A preemergence, kochia; conditions: 0 to 100 scale (0 no effect, 100 complete control)
Method in brief: as §1

[3] = tested on: ducksalad (Heteranthera limosa); assay: Test B flooded paddy test, ducksalad; conditions: 250 g ai/ha, applied to paddy water, visual rating after 13 to 15 days, scale 0 (no effect) to 100 (complete control)
From the text: (§2) At time of treatment, test pots were flooded to 3 cm above the soil surface, treated by application of test compounds directly to the paddy water, and then maintained at that water depth for the duration of the test. Treated plants and controls were maintained in a greenhouse for 13 to 15 days, after which time all species were compared to controls and visually evaluated. […] A dash (-) response means no test result.

[4] = tested on: sedge, umbrella (small-flower umbrella sedge, Cyperus difformis); assay: Test B flooded paddy test, umbrella sedge; conditions: 250 g ai/ha, applied to paddy water, visual rating after 13 to 15 days, scale 0 (no effect) to 100 (complete control)
From the text: as §2

[5] = tested on: foxtail, giant (Setaria faberii); assay: Test A postemergence, giant foxtail; conditions: visual injury, 0 to 100 scale (0 no effect, 100 complete control), approximately 10 days
Method in brief: as §1

[6] = tested on: ragweed (common ragweed, Ambrosia elatior); assay: Test A preemergence, ragweed; conditions: 0 to 100 scale (0 no effect, 100 complete control)
Method in brief: as §1

[7] = tested on: ragweed (common ragweed, Ambrosia elatior); assay: Test A postemergence, ragweed; conditions: visual injury, 0 to 100 scale (0 no effect, 100 complete control), approximately 10 days
Method in brief: as §1

[8] = tested on: ryegrass, Italian (Lolium multiflorum); assay: Test A preemergence, Italian ryegrass; conditions: 0 to 100 scale (0 no effect, 100 complete control)
Method in brief: as §1

[9] = tested on: pigweed (Amaranthus retroflexus); assay: Test A postemergence, pigweed; conditions: visual injury, 0 to 100 scale (0 no effect, 100 complete control), approximately 10 days
Method in brief: as §1

corn (Zea mays) = assay: Test A postemergence, corn; conditions: visual injury, 0 to 100 scale (0 no effect, 100 complete control), approximately 10 days
Method in brief: as §1

[10] = tested on: foxtail, giant (Setaria faberii); assay: Test A preemergence, giant foxtail; conditions: 0 to 100 scale (0 no effect, 100 complete control)
Method in brief: as §1

[11] = tested on: pigweed (Amaranthus retroflexus); assay: Test A preemergence, pigweed; conditions: 0 to 100 scale (0 no effect, 100 complete control)
Method in brief: as §1

[12] = tested on: barnyardgrass (Echinochloa crus-galli); assay: Test B flooded paddy test, barnyardgrass; conditions: 250 g ai/ha, applied to paddy water, visual rating after 13 to 15 days, scale 0 (no effect) to 100 (complete control)
From the text: as §2

[13] = tested on: galium (catchweed bedstraw, Galium aparine); assay: Test A postemergence, galium; conditions: visual injury, 0 to 100 scale (0 no effect, 100 complete control), approximately 10 days
Method in brief: as §1

rice (Oryza sativa) = assay: Test B flooded paddy test, rice; conditions: 250 g ai/ha, applied to paddy water, visual rating after 13 to 15 days, scale 0 (no effect) to 100 (complete control)
From the text: as §2

[14] = tested on: barnyardgrass (Echinochloa crus-galli); assay: Test A postemergence, barnyardgrass; conditions: visual injury, 0 to 100 scale (0 no effect, 100 complete control), approximately 10 days
Method in brief: as §1

[15] = tested on: blackgrass (Alopecurus myosuroides); assay: Test A postemergence, blackgrass; conditions: visual injury, 0 to 100 scale (0 no effect, 100 complete control), approximately 10 days
Method in brief: as §1

[16] = tested on: wheat (Triticum aestivum); assay: Test A postemergence, wheat; conditions: visual injury, 0 to 100 scale (0 no effect, 100 complete control), approximately 10 days
Method in brief: as §1

[17] = tested on: barnyardgrass (Echinochloa crus-galli); assay: Test A preemergence, barnyardgrass; conditions: 0 to 100 scale (0 no effect, 100 complete control)
Method in brief: as §1

[18] = tested on: ryegrass, Italian (Lolium multiflorum); assay: Test A postemergence, Italian ryegrass; conditions: visual injury, 0 to 100 scale (0 no effect, 100 complete control), approximately 10 days
Method in brief: as §1

Row | Structure (SMILES) | Plant response rating, Kochia (kochia (Kochia scoparia) [1]; 125 g ai/ha) | Plant response rating, Kochia (kochia (Kochia scoparia) [1]; 500 g ai/ha) | Plant response rating, Kochia (kochia (Kochia scoparia) [2]; 125 g ai/ha) | Plant response rating, Ducksalad (Flood) [3] | Plant response rating, Sedge, Umbrella (Flood) [4] | Plant response rating, Foxtail, Giant ([5]; 125 g ai/ha) | Plant response rating, Foxtail, Giant ([5]; 500 g ai/ha) | Plant response rating, Ragweed ([6]; 125 g ai/ha) | Plant response rating, Ragweed ([6]; 500 g ai/ha) | Plant response rating, Ragweed ([7]; 125 g ai/ha) | Plant response rating, Ragweed ([7]; 500 g ai/ha) | Plant response rating, Ryegrass, Italian ([8]; 125 g ai/ha) | Plant response rating, Ryegrass, Italian ([8]; 500 g ai/ha) | Plant response rating, Pigweed ([9]; 125 g ai/ha) | Plant response rating, Pigweed ([9]; 500 g ai/ha) | Plant response rating, Corn (corn (Zea mays); 125 g ai/ha) | Plant response rating, Corn (corn (Zea mays); 500 g ai/ha) | Plant response rating, Foxtail, Giant ([10]; 125 g ai/ha) | Plant response rating, Foxtail, Giant ([10]; 500 g ai/ha) | Plant response rating, Pigweed ([11]; 125 g ai/ha) | also measured
1 | O=C1NCC(c2cccc(OCC3OCCO3)c2)C1C(=O)Nc1ccccc1F (centres unmarked) [Compound 8] | 0 | 0 | 0 | 35 | 0 | 0 | 70 | 0 | 0 | 0 | 10 | 0 | 0 | 0 | 0 | 0 | 20 | 80 | 90 | 0 | Plant response rating, Kochia (kochia (Kochia scoparia) [2]; 500 g ai/ha): 0; Plant response rating, Pigweed ([11]; 500 g ai/ha): 0; Plant response rating, Barnyardgrass (Flood) [12]: 0; Plant response rating, Galium ([13]; 125 g ai/ha): 0; Plant response rating, Galium ([13]; 500 g ai/ha): 0; Plant response rating, Rice (Flood) (rice (Oryza sativa)): 0; Plant response rating, Barnyardgrass ([14]; 125 g ai/ha): 0; Plant response rating, Barnyardgrass ([14]; 500 g ai/ha): 70; Plant response rating, Blackgrass ([15]; 125 g ai/ha): 0; Plant response rating, Blackgrass ([15]; 500 g ai/ha): 20; Plant response rating, Wheat ([16]; 125 g ai/ha): 0; Plant response rating, Wheat ([16]; 500 g ai/ha): 0; Plant response rating, Barnyardgrass ([17]; 125 g ai/ha): 50; Plant response rating, Barnyardgrass ([17]; 500 g ai/ha): 80; Plant response rating, Ryegrass, Italian ([18]; 125 g ai/ha): 0; Plant response rating, Ryegrass, Italian ([18]; 500 g ai/ha): 0
2 | CN(C)N=Cc1cccc(C2CN(C)C(=O)C2C(=O)Nc2ccccc2F)c1 (centres unmarked) [Compound 54] | 0 | 0 | 0 | 0 | 0 | 0 | 20 | 0 | 0 | 0 | 0 | 0 | 0 | 0 | 0 | 0 | 0 | 0 | 70 | 0 | Plant response rating, Kochia (kochia (Kochia scoparia) [2]; 500 g ai/ha): 0; Plant response rating, Pigweed ([11]; 500 g ai/ha): 0; Plant response rating, Barnyardgrass (Flood) [12]: 0; Plant response rating, Galium ([13]; 125 g ai/ha): 0; Plant response rating, Galium ([13]; 500 g ai/ha): 0; Plant response rating, Rice (Flood) (rice (Oryza sativa)): 0; Plant response rating, Barnyardgrass ([14]; 125 g ai/ha): 0; Plant response rating, Barnyardgrass ([14]; 500 g ai/ha): 30; Plant response rating, Blackgrass ([15]; 125 g ai/ha): 0; Plant response rating, Blackgrass ([15]; 500 g ai/ha): 0; Plant response rating, Wheat ([16]; 125 g ai/ha): 0; Plant response rating, Wheat ([16]; 500 g ai/ha): 0; Plant response rating, Barnyardgrass ([17]; 125 g ai/ha): 0; Plant response rating, Barnyardgrass ([17]; 500 g ai/ha): 20; Plant response rating, Ryegrass, Italian ([18]; 125 g ai/ha): 0; Plant response rating, Ryegrass, Italian ([18]; 500 g ai/ha): 0
3 | O=C1NCC(c2cccc(OCC3CC3)c2)C1C(=O)Nc1ccccc1Cl (centres unmarked) [Compound 4] | 0 | 0 | 0 | 0 | 0 | 40 | 80 | 0 | 0 | 0 | 40 | 0 | 20 | 0 | 30 | 0 | 0 | 70 | 90 | 0 | Plant response rating, Kochia (kochia (Kochia scoparia) [2]; 500 g ai/ha): 30; Plant response rating, Pigweed ([11]; 500 g ai/ha): 20; Plant response rating, Barnyardgrass (Flood) [12]: 0; Plant response rating, Galium ([13]; 125 g ai/ha): 0; Plant response rating, Galium ([13]; 500 g ai/ha): 0; Plant response rating, Rice (Flood) (rice (Oryza sativa)): 0; Plant response rating, Barnyardgrass ([14]; 125 g ai/ha): 40; Plant response rating, Barnyardgrass ([14]; 500 g ai/ha): 80; Plant response rating, Blackgrass ([15]; 125 g ai/ha): 0; Plant response rating, Blackgrass ([15]; 500 g ai/ha): 40; Plant response rating, Wheat ([16]; 125 g ai/ha): 0; Plant response rating, Wheat ([16]; 500 g ai/ha): 0; Plant response rating, Barnyardgrass ([17]; 125 g ai/ha): 60; Plant response rating, Barnyardgrass ([17]; 500 g ai/ha): 90; Plant response rating, Ryegrass, Italian ([18]; 125 g ai/ha): 0; Plant response rating, Ryegrass, Italian ([18]; 500 g ai/ha): 40
4 | O=C1NCC(c2ccccc2Cn2ccc(C(F)(F)F)n2)C1C(=O)Nc1ccc(F)c(F)c1F (centres unmarked) [Compound 58] | 0 | 20 | 0 | 0 | 0 | 30 | 60 | 0 | 0 | 0 | 0 | 0 | 20 | 0 | 0 | 0 | 0 | 60 | 90 | 0 | Plant response rating, Pigweed ([11]; 500 g ai/ha): 0; Plant response rating, Barnyardgrass (Flood) [12]: 0; Plant response rating, Galium ([13]; 125 g ai/ha): 0; Plant response rating, Galium ([13]; 500 g ai/ha): 20; Plant response rating, Rice (Flood) (rice (Oryza sativa)): 0; Plant response rating, Barnyardgrass ([14]; 125 g ai/ha): 0; Plant response rating, Barnyardgrass ([14]; 500 g ai/ha): 60; Plant response rating, Blackgrass ([15]; 125 g ai/ha): 0; Plant response rating, Blackgrass ([15]; 500 g ai/ha): 0; Plant response rating, Wheat ([16]; 125 g ai/ha): 0; Plant response rating, Wheat ([16]; 500 g ai/ha): 0; Plant response rating, Barnyardgrass ([17]; 125 g ai/ha): 30; Plant response rating, Barnyardgrass ([17]; 500 g ai/ha): 90; Plant response rating, Ryegrass, Italian ([18]; 125 g ai/ha): 0; Plant response rating, Ryegrass, Italian ([18]; 500 g ai/ha): 0
5 | O=C1NCC(c2cccc(OCc3ccco3)c2)C1C(=O)Nc1cccc(F)c1F (centres unmarked) [Compound 9] | 0 | 0 | 0 | 30 | 30 | 0 | 50 | 0 | 0 | 0 | 0 | 0 | 0 | 0 | 0 | 0 | 20 | 10 | 70 | 0 | Plant response rating, Kochia (kochia (Kochia scoparia) [2]; 500 g ai/ha): 0; Plant response rating, Pigweed ([11]; 500 g ai/ha): 0; Plant response rating, Barnyardgrass (Flood) [12]: 0; Plant response rating, Galium ([13]; 125 g ai/ha): 0; Plant response rating, Galium ([13]; 500 g ai/ha): 0; Plant response rating, Rice (Flood) (rice (Oryza sativa)): 0; Plant response rating, Barnyardgrass ([14]; 125 g ai/ha): 30; Plant response rating, Barnyardgrass ([14]; 500 g ai/ha): 60; Plant response rating, Blackgrass ([15]; 125 g ai/ha): 0; Plant response rating, Blackgrass ([15]; 500 g ai/ha): 0; Plant response rating, Wheat ([16]; 125 g ai/ha): 0; Plant response rating, Wheat ([16]; 500 g ai/ha): 0; Plant response rating, Barnyardgrass ([17]; 125 g ai/ha): 10; Plant response rating, Barnyardgrass ([17]; 500 g ai/ha): 70; Plant response rating, Ryegrass, Italian ([18]; 125 g ai/ha): 0; Plant response rating, Ryegrass, Italian ([18]; 500 g ai/ha): 0
